Assay results reported in patent publication US20140005163A1 (NOVARTIS AG, priority 2010, published 2014).

Assays:
[1] = biological target: T1, PI3K alpha (Homo sapiens, UniProt P42336); assay: PI3K alpha kinase assay (Kinase-Glo luminescence); format: biochemical
T1 construct: p85(iSH2) fusion partner (see partner chain) (N); His tag (C); made in house; host or cells: baculovirus; Tn5 (Trichoplusia ni) or TiniPro insect cells
Method in brief: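 PI3K alpha at 10 nM with 1 μM ATP and 10 μg/mL phosphatidylinositol in 10 mM TRIS pH 7.5, 3 mM MgCl2, 50 mM NaCl, 0.05% CHAPS, 1 mM DTT, 60 min at room temperature. Remaining ATP read by Kinase-Glo luminescence. IC50 by 4-parameter fit over 8 concentrations.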

[2] = biological target: T2, PI3K beta (Homo sapiens, UniProt P42338); assay: PI3K beta kinase assay (Kinase-Glo luminescence); format: biochemical
T2 construct: for the full-length p110-b subunit are generated and fused by overlapping PCR; p85(iSH2) fusion partner (see partner chain) (N); His tag (C); made in house; host or cells: baculovirus; Tn5 (Trichoplusia ni) or TiniPro insect cells
T2 sequence (P42338 with tags, fused parts or gaps limits assumed): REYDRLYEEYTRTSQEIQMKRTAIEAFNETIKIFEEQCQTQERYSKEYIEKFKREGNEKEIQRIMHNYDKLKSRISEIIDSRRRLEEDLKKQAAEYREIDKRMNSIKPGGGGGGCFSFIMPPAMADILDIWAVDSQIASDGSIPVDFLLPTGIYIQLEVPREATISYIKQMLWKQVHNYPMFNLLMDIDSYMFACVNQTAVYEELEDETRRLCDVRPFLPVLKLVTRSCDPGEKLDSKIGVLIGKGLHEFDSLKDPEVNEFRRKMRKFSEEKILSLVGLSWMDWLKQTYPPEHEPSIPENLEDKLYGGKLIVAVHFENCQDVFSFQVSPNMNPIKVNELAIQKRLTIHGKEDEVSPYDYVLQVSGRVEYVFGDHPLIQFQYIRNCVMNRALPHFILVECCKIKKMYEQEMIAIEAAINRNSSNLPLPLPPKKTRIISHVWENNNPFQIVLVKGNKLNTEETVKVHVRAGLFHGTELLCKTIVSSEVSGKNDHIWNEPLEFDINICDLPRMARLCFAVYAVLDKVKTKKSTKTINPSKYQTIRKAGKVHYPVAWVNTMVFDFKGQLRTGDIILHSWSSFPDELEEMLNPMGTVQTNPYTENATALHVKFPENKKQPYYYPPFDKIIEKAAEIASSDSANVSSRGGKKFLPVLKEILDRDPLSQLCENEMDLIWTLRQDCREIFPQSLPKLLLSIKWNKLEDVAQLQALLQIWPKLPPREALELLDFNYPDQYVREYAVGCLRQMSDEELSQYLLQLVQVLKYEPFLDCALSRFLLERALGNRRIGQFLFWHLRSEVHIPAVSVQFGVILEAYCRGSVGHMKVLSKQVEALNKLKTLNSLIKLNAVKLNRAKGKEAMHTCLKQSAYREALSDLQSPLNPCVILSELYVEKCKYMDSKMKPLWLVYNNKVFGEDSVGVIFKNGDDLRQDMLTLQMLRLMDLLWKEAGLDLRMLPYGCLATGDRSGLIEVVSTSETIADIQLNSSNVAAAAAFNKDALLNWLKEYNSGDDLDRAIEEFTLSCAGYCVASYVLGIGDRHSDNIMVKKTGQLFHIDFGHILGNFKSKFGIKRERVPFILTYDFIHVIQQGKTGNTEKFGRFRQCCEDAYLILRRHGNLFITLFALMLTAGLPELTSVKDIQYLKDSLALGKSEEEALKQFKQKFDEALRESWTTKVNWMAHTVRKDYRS
Method in brief: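 Kinase-Glo luminescence after a 60 min room-temperature reaction gives remaining ATP. The reaction holds 25 nM p85(iSH2)-p110β full-length His-tagged construct, 1 μM ATP, 10 μg/mL PI, and eight compound concentrations at 0.45% DMSO final. IC50 values come from a four-parameter logistic fit.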

[3] = biological target: T3, PI3K delta (Homo sapiens, UniProt O00329); assay: PI3K delta kinase assay (Kinase-Glo luminescence); format: biochemical
T3 construct: for the full-length p110-d subunit are generated and fused by overlapping PCR; p85(iSH2) fusion partner (see partner chain) (N); His tag (C); made in house; host or cells: baculovirus; Tn5 (Trichoplusia ni) or TiniPro insect cells
T3 sequence (O00329 with tags, fused parts or gaps limits assumed): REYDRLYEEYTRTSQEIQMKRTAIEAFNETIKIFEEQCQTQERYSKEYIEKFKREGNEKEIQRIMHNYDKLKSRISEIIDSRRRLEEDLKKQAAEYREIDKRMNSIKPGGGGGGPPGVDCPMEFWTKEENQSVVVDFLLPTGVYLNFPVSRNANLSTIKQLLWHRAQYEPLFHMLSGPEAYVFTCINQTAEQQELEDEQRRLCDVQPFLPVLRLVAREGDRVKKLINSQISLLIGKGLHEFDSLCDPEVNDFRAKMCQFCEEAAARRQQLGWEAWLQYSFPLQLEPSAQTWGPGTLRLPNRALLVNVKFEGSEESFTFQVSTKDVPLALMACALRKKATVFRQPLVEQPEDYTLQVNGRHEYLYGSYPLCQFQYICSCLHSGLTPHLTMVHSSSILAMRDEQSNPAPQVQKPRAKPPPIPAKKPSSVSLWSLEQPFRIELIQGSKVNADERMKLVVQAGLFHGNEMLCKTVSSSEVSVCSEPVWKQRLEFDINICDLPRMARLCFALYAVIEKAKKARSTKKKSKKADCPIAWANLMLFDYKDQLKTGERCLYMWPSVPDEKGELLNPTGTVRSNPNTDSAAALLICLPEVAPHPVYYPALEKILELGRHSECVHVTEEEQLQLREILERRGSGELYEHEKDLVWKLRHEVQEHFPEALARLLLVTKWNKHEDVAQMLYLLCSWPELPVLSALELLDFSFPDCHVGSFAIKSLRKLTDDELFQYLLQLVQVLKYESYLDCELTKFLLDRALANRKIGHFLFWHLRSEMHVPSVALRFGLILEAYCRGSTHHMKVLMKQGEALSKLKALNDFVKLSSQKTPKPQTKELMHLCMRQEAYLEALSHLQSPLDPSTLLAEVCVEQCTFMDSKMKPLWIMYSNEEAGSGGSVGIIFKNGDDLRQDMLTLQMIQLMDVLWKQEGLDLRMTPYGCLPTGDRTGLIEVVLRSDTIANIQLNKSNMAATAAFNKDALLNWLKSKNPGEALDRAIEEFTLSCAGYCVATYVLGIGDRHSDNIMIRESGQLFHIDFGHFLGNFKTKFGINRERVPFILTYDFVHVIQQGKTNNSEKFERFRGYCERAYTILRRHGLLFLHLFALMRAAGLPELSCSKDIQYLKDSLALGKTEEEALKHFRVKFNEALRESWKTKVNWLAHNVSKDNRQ
Method in brief: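 Construct BV-1060, p85 iSH2–linker–full-length p110δ, His-tagged, at 10 nM, with 1 μM ATP and 10 μg/mL phosphatidylinositol in pH 7.5 Tris, 3 mM MgCl2, 50 mM NaCl, 0.05% CHAPS. Run 60 min at room temperature; remaining ATP read by Kinase-Glo luminescence; IC50 from 4-parameter logistic fit of 8 concentrations.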

[4] = system: PKB Ser473 phosphorylation in Rat1-myr-HA-p110 beta cells; assay: Reverse protein array assay, PKB Ser473 phosphorylation in Rat1-myr-p110 beta cells; format: cell-based; details: 0.5 h, pAkt Ser473, 30 minutes incubation, read-out: p-PKB IC50
Method in brief: (§1)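 After at least 20 h of culture, the p110 isoform-transfected Rat1 lines receive compound in an 8-step dilution series, keeping DMSO at 0.2%, for 30 minutes. Cells are then lysed and lysates arrayed on chips for fluorescence detection of Ser473-phosphorylated PKB.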

[5] = system: PKB Ser473 phosphorylation in Rat1-myr-HA-p110 delta cells; assay: Reverse protein array assay, PKB Ser473 phosphorylation in Rat1-myr-p110 delta cells; format: cell-based; details: read-out: p-PKB IC50
Method in brief: as §1

T1 sequence (P42336 with tags, fused parts or gaps limits assumed): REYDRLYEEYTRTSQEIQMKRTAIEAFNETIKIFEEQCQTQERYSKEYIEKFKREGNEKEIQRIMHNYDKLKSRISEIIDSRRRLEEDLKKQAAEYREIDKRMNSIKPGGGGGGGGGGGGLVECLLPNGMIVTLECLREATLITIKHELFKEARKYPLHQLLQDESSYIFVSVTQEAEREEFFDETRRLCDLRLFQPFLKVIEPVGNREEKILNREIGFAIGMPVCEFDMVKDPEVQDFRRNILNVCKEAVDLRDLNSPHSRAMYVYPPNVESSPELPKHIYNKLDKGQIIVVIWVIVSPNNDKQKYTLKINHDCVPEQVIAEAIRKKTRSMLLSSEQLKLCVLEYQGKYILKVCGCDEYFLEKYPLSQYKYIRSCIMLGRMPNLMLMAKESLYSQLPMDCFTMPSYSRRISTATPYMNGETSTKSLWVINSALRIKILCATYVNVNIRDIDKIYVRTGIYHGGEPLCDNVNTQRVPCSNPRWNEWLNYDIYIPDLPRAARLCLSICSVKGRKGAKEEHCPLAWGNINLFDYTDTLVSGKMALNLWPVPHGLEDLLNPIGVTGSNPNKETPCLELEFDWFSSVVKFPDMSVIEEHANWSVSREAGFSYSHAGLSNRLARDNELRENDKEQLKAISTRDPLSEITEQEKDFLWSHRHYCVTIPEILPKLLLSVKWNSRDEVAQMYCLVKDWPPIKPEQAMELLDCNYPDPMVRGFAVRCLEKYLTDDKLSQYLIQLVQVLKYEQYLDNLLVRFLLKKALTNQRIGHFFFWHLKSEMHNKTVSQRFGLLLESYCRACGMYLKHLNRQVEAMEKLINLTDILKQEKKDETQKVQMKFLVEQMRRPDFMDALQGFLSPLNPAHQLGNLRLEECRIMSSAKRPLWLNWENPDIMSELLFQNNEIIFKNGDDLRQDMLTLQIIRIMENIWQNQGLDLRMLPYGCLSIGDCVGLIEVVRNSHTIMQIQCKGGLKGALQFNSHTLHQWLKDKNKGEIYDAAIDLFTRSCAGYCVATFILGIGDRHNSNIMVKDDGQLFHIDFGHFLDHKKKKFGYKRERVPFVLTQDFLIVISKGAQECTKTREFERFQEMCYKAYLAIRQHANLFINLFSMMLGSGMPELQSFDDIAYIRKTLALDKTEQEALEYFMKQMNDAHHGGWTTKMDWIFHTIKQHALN

Compound Cc1nn(C(C)C)cc1-n1c(=O)n(C)c2cnc3ccc(-c4cnc(N)c(C(F)(F)F)c4)cc3c21 [Example 25.4, 8-(6-Amino-5-trifluoromethyl-pyridin-3-yl)-1-(1-isopropyl-3-methyl-1H-pyrazol-4-yl)-3-methyl-1,3-dihydro-imidazo[4,5-c]quinolin-2-one] has an IC50 [1] of 0.012 µM, an IC50 [2] of 0.016 µM and an IC50 [3] of 0.004 µM. The IC50 [4] was 0.007 µM and the IC50 [5] was 0.009 µM.
For Cc1noc(C)c1-n1c(=O)n(C)c2cnc3ccc(-c4cnc(N)c(C(F)(F)F)c4)cc3c21 [Example 25.5, 8-(6-Amino-5-trifluoromethyl-pyridin-3-yl)-1-(3,5-dimethyl-isoxazol-4-yl)-3-methyl-1,3-dihydro-imidazo[4,5-c]quinolin-2-one], the IC50 [1] was 0.03 µM, the IC50 [2] was 0.03 µM and the IC50 [3] was 0.01 µM. The IC50 [4] was 0.115 µM and the IC50 [5] was 0.157 µM.
Cc1nn(C)cc1-n1c(=O)n(C)c2cnc3ccc(-c4cncnc4)cc3c21 [Example 26, 1-(1,3-Dimethyl-1H-pyrazol-4-yl)-3-methyl-8-pyrimidin-5-yl-1,3-dihydro-imidazo[4,5-c]quinolin-2-one] gave an IC50 [1] of 0.103 µM, an IC50 [2] of 0.517 µM and an IC50 [3] of 0.336 µM. The IC50 [4] was 0.226 µM and the IC50 [5] was 0.45 µM.
Work on Cc1nn(C)cc1-n1c(=O)n(C)c2cnc3ccc(-c4cc(O)cc(C(F)(F)F)c4)cc3c21 [Example 34, 1-(1,3-Dimethyl-1H-pyrazol-4-yl)-8-(3-hydroxy-5-trifluoromethyl-phenyl)-3-methyl-1,3-dihydro-imidazo[4,5-c]quinolin-2-one] yielded an IC50 [1] of 0.007 µM, an IC50 [2] of 0.015 µM and an IC50 [3] of 0.007 µM. The IC50 [4] was 0.153 µM and the IC50 [5] was 0.202 µM.
For Cc1nn(C)cc1-n1c(=O)n(C)c2cnc3ccc(-c4cnc5[nH]ccc5c4)cc3c21 [Example 36, 1-(1,3-dimethyl-1H-pyrazol-4-yl)-3-methyl-8-(1H-pyrrolo[2,3-b]pyridin-5-yl)-1,3-dihydro-imidazo[4,5-c]quinolin-2-one], the IC50 [1] was 0.009 µM, the IC50 [2] was 0.032 µM and the IC50 [3] was 0.024 µM. The IC50 [4] was 0.006 µM and the IC50 [5] was 0.008 µM.
Compound CNC(=O)c1ccc(-c2ccc3ncc4c(c3c2)n(-c2cn(C)nc2Cl)c(=O)n4C)cc1 [Example 43.2, 4-[1-(3-Chloro-1-methyl-1H-pyrazol-4-yl)-3-methyl-2-oxo-2,3-dihydro-1H-imidazol[4,5-c]quinolin-8-yl]-N-methyl-benzamide] has an IC50 [1] of 0.008 µM, an IC50 [2] of 0.056 µM and an IC50 [3] of 0.034 µM. The IC50 [4] was < 0.005 µM and the IC50 [5] was 0.012 µM.
Work on CCCOc1ccc(-c2ccc3ncc4c(c3c2)n(-c2cn(C)nc2C)c(=O)n4C)cn1 [Example 55, 1-(1,3-Dimethyl-1H-pyrazol-4-yl)-3-methyl-8-(6-propoxy-pyridin-3-yl)-1,3-dihydro-imidazo[4,5-c]quinolin-2-one] yielded an IC50 [1] of 0.056 µM, an IC50 [2] of 0.951 µM and an IC50 [3] of 0.132 µM. It also gave an IC50 [4] of 0.021 µM and an IC50 [5] of 0.054 µM.
With CCOc1cccc(-c2ccc3ncc4c(c3c2)n(-c2cn(C)nc2C)c(=O)n4C)c1 [Example 57, 1-(1,3-Dimethyl-1H-pyrazol-4-yl)-8-(3-ethoxy-phenyl)-3-methyl-1,3-dihydro-imidazo[4,5-c]quinolin-2-one] the IC50 [1] was 0.038 µM, the IC50 [2] was 0.215 µM and the IC50 [3] was 0.215 µM. It also gave an IC50 [4] of 0.106 µM and an IC50 [5] of 0.288 µM.
For COc1ncc(-c2ccc3ncc4c(c3c2)n(-c2cn(C)nc2C)c(=O)n4C)cc1N(C)C(C)=O [Example 62, N-{5-[1-(1,3-Dimethyl-1H-pyrazol-4-yl)-3-methyl-2-oxo-2,3-dihydro-1H-imidazo[4,5-c]quinolin-8-yl]-2-methoxy-pyridin-3-yl}-N-methyl-acetamide], the IC50 [1] was 0.061 µM, the IC50 [2] was 0.083 µM and the IC50 [3] was 0.016 µM. It also gave an IC50 [4] of 0.516 µM and an IC50 [5] of 0.276 µM.
Cc1ncc(-c2ccc3ncc4c(c3c2)n(-c2cn(C)nc2C)c(=O)n4C)cc1N(C)S(C)(=O)=O [Example 75, N-{5-[1-(1,3-Dimethyl-1H-pyrazol-4-yl)-3-methyl-2-oxo-2,3-dihydro-1H-imidazo[4,5-c]quinolin-8-yl]-2-methyl-pyridin-3-yl}-N-methyl-methanesulfonamide] was tested, and the IC50 [1] was 0.014 µM, the IC50 [2] was 0.037 µM and the IC50 [3] was 0.007 µM. For the same compound, the IC50 [4] was 0.383 µM and the IC50 [5] was 0.177 µM.
For CNc1ncc(-c2ccc3ncc4c(c3c2)n(-c2c(C)nn(C)c2C)c(=O)n4C)cn1 [Example 80.2], the IC50 [1] was 0.042 µM, the IC50 [2] was 0.288 µM and the IC50 [3] was 0.025 µM. For the same compound, the IC50 [4] was 0.196 µM and the IC50 [5] was 0.323 µM.
Compound Cc1nn(C)cc1-n1c(=O)n(C)c2cnc3ccc(-c4cnc(N)nc4)cc3c21 [Example 81.1, 8-(2-Amino-pyrimidin-5-yl)-1-(1,3-dimethyl-1H-pyrazol-4-yl)-3-methyl-1,3-dihydro-imidazo[4,5-c]quinolin-2-one] has an IC50 [1] of 0.075 µM, an IC50 [2] of 0.091 µM and an IC50 [3] of 0.039 µM. For the same compound, the IC50 [4] was 0.018 µM and the IC50 [5] was 0.011 µM.
COCCOc1cc(-c2ccc3ncc4c(c3c2)n(-c2cn(C)nc2C)c(=O)n4C)cnc1C [Example 86.2, 1-(1,3-Dimethyl-1H-pyrazol-4-yl)-8-[5-(2-methoxy-ethoxy)-6-methyl-pyridin-3-yl]-3-methyl-1,3-dihydro-imidazo[4,5-c]quinolin-2-one] showed an IC50 [1] of 0.009 µM, an IC50 [2] of 0.021 µM and an IC50 [3] of 0.006 µM. For the same compound, the IC50 [4] was 0.053 µM and the IC50 [5] was 0.057 µM.
CCNc1cc(-c2ccc3ncc4c(c3c2)n(-c2cn(C)nc2C)c(=O)n4C)cnc1C [Example 87.1, 1-(1,3-Dimethyl-1H-pyrazol-4-yl)-8-(5-ethylamino-6-methyl-pyridin-3-yl)-3-methyl-1,3-dihydro-imidazo[4,5-c]quinolin-2-one] was tested, and the IC50 [1] was 0.014 µM, the IC50 [2] was 0.021 µM and the IC50 [3] was 0.01 µM. The IC50 [4] was < 0.005 µM and the IC50 [5] was < 0.005 µM.
For CCNc1cc(-c2ccc3ncc4c(c3c2)n(-c2c(C)nn(CCOC)c2C)c(=O)n4C)cnc1C [Example 87.4, 8-(5-Ethylamino-6-methyl-pyridin-3-yl)-1-[1-(2-methoxy-ethyl)-3,5-dimethyl-1H-pyrazol-4-yl]-3-methyl-1,3-dihydro-imidazo[4,5-c]quinolin-2-one], the IC50 [1] was 0.042 µM, the IC50 [2] was 0.093 µM and the IC50 [3] was 0.017 µM. It also gave an IC50 [4] of 0.085 µM and an IC50 [5] of 0.091 µM.
In the case of Cc1ncc(-c2ccc3ncc4c(c3c2)n(-c2cn(C)nc2C)c(=O)n4C)cc1N [Example 88.2, 8-(5-Amino-6-methyl-pyridin-3-yl)-1-(1,3-dimethyl-1H-pyrazol-4-yl)-3-methyl-1,3-dihydro-imidazo[4,5-c]quinolin-2-one], the IC50 [1] is reported as 0.017 µM, the IC50 [2] is reported as 0.068 µM and the IC50 [3] is reported as 0.008 µM. The IC50 [4] was 0.028 µM and the IC50 [5] was 0.059 µM.
Compound CCNc1cc(-c2ccc3ncc4c(c3c2)n(-c2cn(C)nc2Cl)c(=O)n4C)cnc1OC [Example 90.1, 1-(3-Chloro-1-methyl-1H-pyrazol-4-yl)-8-(5-ethylamino-6-methoxy-pyridin-3-yl)-3-methyl-1,3-dihydro-imidazo[4,5-c]quinolin-2-one] has an IC50 [1] of 0.043 µM, an IC50 [2] of 0.039 µM and an IC50 [3] of 0.031 µM. For the same compound, the IC50 [4] was < 0.005 µM and the IC50 [5] was < 0.005 µM.
With Cc1nn(C)cc1-n1c(=O)n(C)c2cnc3ccc(-c4ccc(N5CCN(C)CC5)nc4)cc3c21 [Example 96, 1-(1,3-Dimethyl-1H-pyrazol-4-yl)-3-methyl-8-[6-(4-methyl-piperazin-1-yl)-pyridin-3-yl]-1,3-dihydro-imidazo[4,5-c]quinolin-2-one] the IC50 [1] was 0.047 µM, the IC50 [2] was 0.544 µM and the IC50 [3] was 0.199 µM. It also gave an IC50 [4] of 0.037 µM and an IC50 [5] of 0.06 µM.
COc1ccc(-c2ccc3ncc4c(c3c2)n(-c2cn(CC(=O)N(C)C)nc2C)c(=O)n4C)cn1 [Example 102, 2-{4-[8-(6-Methoxy-pyridin-3-yl)-3-methyl-2-oxo-2,3-dihydro-imidazo[4,5-c]quinolin-1-yl]-3-methyl-pyrazol-1-yl}-N,N-dimethyl-acetamide] showed an IC50 [1] of 0.013 µM, an IC50 [2] of 0.291 µM and an IC50 [3] of 0.026 µM. It also gave an IC50 [4] of 0.034 µM and an IC50 [5] of 0.078 µM.
Work on Cc1nn(C(C)C)cc1-n1c(=O)n(C)c2cnc3ccc(-c4ccc(C(N)=O)nc4)cc3c21 [Example 112, 5-[1-(1-Isopropyl-3-methyl-1H-pyrazol-4-yl)-3-methyl-2-oxo-2,3-dihydro-1H-imidazo[4,5-c]quinolin-8-yl]-pyridine-2-carboxylic acid amide] yielded an IC50 [1] of 0.079 µM, an IC50 [2] of 0.391 µM and an IC50 [3] of 0.209 µM. It also gave an IC50 [4] of 0.073 µM and an IC50 [5] of 0.069 µM.
